Laboratory results as given in patent US11472811B2, “Pyrazolotriazolopyrimidine derivatives as A2A receptor antagonist” (BEIGENE, LTD., priority 2018, dated 2022).

biological target: human A2A receptor (A2AR) (Homo sapiens (Human), UniProt P29274); experiment: Luciferase reporter assay (HEK293-A2AR-luc2p/CRE/Hygro cells); type: cell-based; settings: 3 nM CGS21680, 5 h incubation
How it was run: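 Antagonism was scored as inhibition of CRE-luciferase signal driven by 3 nM CGS21680 (=100%) during a 5 h treatment with compound at 0.1–10000 nM. The line was HEK293 stably carrying human A2AR and luc2P/CRE, preincubated 18 h in 1% FBS containing 1 U/mL ADA. IC50 came from the dose-response curve.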

Chain of human A2A receptor (A2AR) (P29274 whole entry): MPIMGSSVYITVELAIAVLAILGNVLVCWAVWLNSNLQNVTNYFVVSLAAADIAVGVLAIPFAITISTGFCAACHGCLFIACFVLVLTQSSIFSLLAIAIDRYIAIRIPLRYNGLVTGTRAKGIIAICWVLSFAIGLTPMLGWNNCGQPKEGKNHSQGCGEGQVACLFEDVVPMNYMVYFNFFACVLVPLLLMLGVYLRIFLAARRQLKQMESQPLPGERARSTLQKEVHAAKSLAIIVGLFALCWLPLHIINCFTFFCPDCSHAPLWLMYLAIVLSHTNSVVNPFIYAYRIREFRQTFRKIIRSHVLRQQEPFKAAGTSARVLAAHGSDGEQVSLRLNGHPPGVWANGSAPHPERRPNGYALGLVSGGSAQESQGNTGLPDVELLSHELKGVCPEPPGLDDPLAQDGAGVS

Row | IC50 | Compound
1 | 50.9 nM | CC(C(=O)N[C@H]1COC[C@@H]1O)(c1ccccc1)n1ncc2c1nc(N)n1nc(-c3ccco3)nc21 (stereo partly drawn) [Example 106, 2-(5-amino-2-(furan-2-yl)-7H-pyrazolo[4,3-e][1,2,4]triazolo[1,5-c]pyrimidin-7-yl)-N-((3S,4R)-4-hydroxytetrahydrofuran-3-yl)-2-phenylpropanamide]
2 | 41.7 nM | C[C@](C(=O)N[C@H]1COC[C@@H]1O)(c1ccccc1)n1ncc2c1nc(N)n1nc(-c3ccco3)nc21 [Example 106B, (R)-2-(5-amino-2-(furan-2-yl)-7H-pyrazolo[4,3-e][1,2,4]triazolo[1,5-c]pyrimidin-7-yl)-N-((3S,4R)-4-hydroxytetrahydrofuran-3-yl)-2-phenylpropanamide]
3 | 76.3 nM | CC(C(=O)N[C@H]1COC[C@H]1O)(c1ccccc1)n1ncc2c1nc(N)n1nc(-c3ccco3)nc21 (stereo partly drawn) [Example 107, 2-(5-amino-2-(furan-2-yl)-7H-pyrazolo[4,3-e][1,2,4]triazolo[1,5-c]pyrimidin-7-yl)-N-((3S,4S)-4-hydroxytetrahydrofuran-3-yl)-2-phenylpropanamide]
4 | 32.2 nM | C[C@](C(=O)N[C@H]1COC[C@H]1O)(c1ccccc1)n1ncc2c1nc(N)n1nc(-c3ccco3)nc21 [Example 107B, (R)-2-(5-amino-2-(furan-2-yl)-7H-pyrazolo[4,3-e][1,2,4]triazolo[1,5-c]pyrimidin-7-yl)-N-((3S,4S)-4-hydroxytetrahydrofuran-3-yl)-2-phenylpropanamide]
5 | 3 nM | Cc1cccc(CNC(=O)C(C)(c2ccccc2)n2ncc3c2nc(N)n2nc(-c4ccco4)nc32)n1 (stereo not shown) [Example 108, 2-(5-amino-2-(furan-2-yl)-7H-pyrazolo[4,3-e][1,2,4]triazolo[1,5-c]pyrimidin-7-yl)-N-((6-methylpyridin-2-yl)methyl)-2-phenylpropanamide]
6 | 2.5 nM | Cc1cccc(CNC(=O)[C@@](C)(c2ccccc2)n2ncc3c2nc(N)n2nc(-c4ccco4)nc32)n1 [Example 108B, (R)-2-(5-amino-2-(furan-2-yl)-7H-pyrazolo[4,3-e][1,2,4]triazolo[1,5-c]pyrimidin-7-yl)-N-((6-methylpyridin-2-yl)methyl)-2-phenylpropanamide]
7 | 1 nM | Cc1ccc(CNC(=O)C(C)(c2ccccc2)n2ncc3c2nc(N)n2nc(-c4ccco4)nc32)nc1 (stereo not shown) [Example 109, 2-(5-amino-2-(furan-2-yl)-7H-pyrazolo[4,3-e][1,2,4]triazolo[1,5-c]pyrimidin-7-yl)-N-((5-methylpyridin-2-yl)methyl)-2-phenylpropanamide]
8 | 0.7 nM | Cc1ccc(CNC(=O)[C@@](C)(c2ccccc2)n2ncc3c2nc(N)n2nc(-c4ccco4)nc32)nc1 [Example 109B, (R)-2-(5-amino-2-(furan-2-yl)-7H-pyrazolo[4,3-e][1,2,4]triazolo[1,5-c]pyrimidin-7-yl)-N-((5-methylpyridin-2-yl)methyl)-2-phenylpropanamide]
9 | 2.4 nM | Cc1ccnc(CNC(=O)C(C)(c2ccccc2)n2ncc3c2nc(N)n2nc(-c4ccco4)nc32)c1 (stereo not shown) [Example 110, 2-(5-amino-2-(furan-2-yl)-7H-pyrazolo[4,3-e][1,2,4]triazolo[1,5-c]pyrimidin-7-yl)-N-((4-methylpyridin-2-yl)methyl)-2-phenylpropanamide]
10 | 2.9 nM | Cc1ccnc(CNC(=O)[C@@](C)(c2ccccc2)n2ncc3c2nc(N)n2nc(-c4ccco4)nc32)c1 [Example 110B, (R)-2-(5-amino-2-(furan-2-yl)-7H-pyrazolo[4,3-e][1,2,4]triazolo[1,5-c]pyrimidin-7-yl)-N-((4-methylpyridin-2-yl)methyl)-2-phenylpropanamide]
11 | 0.6 nM | Cc1cccnc1CNC(=O)C(C)(c1ccccc1)n1ncc2c1nc(N)n1nc(-c3ccco3)nc21 (stereo not shown) [Example 111, 2-(5-amino-2-(furan-2-yl)-7H-pyrazolo[4,3-e][1,2,4]triazolo[1,5-c]pyrimidin-7-yl)-N-((3-methylpyridin-2-yl)methyl)-2-phenylpropanamide]
12 | 0.5 nM | Cc1cccnc1CNC(=O)[C@@](C)(c1ccccc1)n1ncc2c1nc(N)n1nc(-c3ccco3)nc21 [Example 111B, (R)-2-(5-amino-2-(furan-2-yl)-7H-pyrazolo[4,3-e][1,2,4]triazolo[1,5-c]pyrimidin-7-yl)-N-((3-methylpyridin-2-yl)methyl)-2-phenylpropanamide]
13 | 4.1 nM | COc1cccc(CNC(=O)C(C)(c2ccccc2)n2ncc3c2nc(N)n2nc(-c4ccco4)nc32)n1 (stereo not shown) [Example 112, 2-(5-amino-2-(furan-2-yl)-7H-pyrazolo[4,3-e][1,2,4]triazolo[1,5-c]pyrimidin-7-yl)-N-((6-methoxypyridin-2-yl)methyl)-2-phenylpropanamide]
14 | 1.2 nM | COc1cccc(CNC(=O)[C@@](C)(c2ccccc2)n2ncc3c2nc(N)n2nc(-c4ccco4)nc32)n1 [Example 112B, (R)-2-(5-amino-2-(furan-2-yl)-7H-pyrazolo[4,3-e][1,2,4]triazolo[1,5-c]pyrimidin-7-yl)-N-((6-methoxypyridin-2-yl)methyl)-2-phenylpropanamide]
15 | 0.9 nM | COc1ccc(CNC(=O)[C@@](C)(c2ccccc2)n2ncc3c2nc(N)n2nc(-c4ccco4)nc32)nc1 [Example 113B, (R)-2-(5-amino-2-(furan-2-yl)-7H-pyrazolo[4,3-e][1,2,4]triazolo[1,5-c]pyrimidin-7-yl)-N-((5-methoxypyridin-2-yl)methyl)-2-phenylpropanamide]
16 | 3.3 nM | COc1ccnc(CNC(=O)C(C)(c2ccccc2)n2ncc3c2nc(N)n2nc(-c4ccco4)nc32)c1 (stereo not shown) [Example 114, 2-(5-amino-2-(furan-2-yl)-7H-pyrazolo[4,3-e][1,2,4]triazolo[1,5-c]pyrimidin-7-yl)-N-((4-methoxypyridin-2-yl)methyl)-2-phenylpropanamide]
17 | 4.6 nM | COc1ccnc(CNC(=O)[C@@](C)(c2ccccc2)n2ncc3c2nc(N)n2nc(-c4ccco4)nc32)c1 [Example 114B, (R)-2-(5-amino-2-(furan-2-yl)-7H-pyrazolo[4,3-e][1,2,4]triazolo[1,5-c]pyrimidin-7-yl)-N-((4-methoxypyridin-2-yl)methyl)-2-phenylpropanamide]
18 | 1.9 nM | COc1cccnc1CNC(=O)C(C)(c1ccccc1)n1ncc2c1nc(N)n1nc(-c3ccco3)nc21 (stereo not shown) [Example 115, 2-(5-amino-2-(furan-2-yl)-7H-pyrazolo[4,3-e][1,2,4]triazolo[1,5-c]pyrimidin-7-yl)-N-((3-methoxypyridin-2-yl)methyl)-2-phenylpropanamide]
19 | 3.3 nM | COc1cccnc1CNC(=O)[C@@](C)(c1ccccc1)n1ncc2c1nc(N)n1nc(-c3ccco3)nc21 [Example 115B, (R)-2-(5-amino-2-(furan-2-yl)-7H-pyrazolo[4,3-e][1,2,4]triazolo[1,5-c]pyrimidin-7-yl)-N-((3-methoxypyridin-2-yl)methyl)-2-phenylpropanamide]
20 | 2.2 nM | CC(C(=O)NCc1cccc(F)n1)(c1ccccc1)n1ncc2c1nc(N)n1nc(-c3ccco3)nc21 (stereo not shown) [Example 116, 2-(5-amino-2-(furan-2-yl)-7H-pyrazolo[4,3-e][1,2,4]triazolo[1,5-c]pyrimidin-7-yl)-N-((6-fluoropyridin-2-yl)methyl)-2-phenylpropanamide]
21 | 3.4 nM | CC(C(=O)NCc1ccc(F)cn1)(c1ccccc1)n1ncc2c1nc(N)n1nc(-c3ccco3)nc21 (stereo not shown) [Example 117, 2-(5-amino-2-(furan-2-yl)-7H-pyrazolo[4,3-e][1,2,4]triazolo[1,5-c]pyrimidin-7-yl)-N-((5-fluoropyridin-2-yl)methyl)-2-phenylpropanamide]
22 | 3.2 nM | C[C@](C(=O)NCc1ccc(F)cn1)(c1ccccc1)n1ncc2c1nc(N)n1nc(-c3ccco3)nc21 [Example 117B, (R)-2-(5-amino-2-(furan-2-yl)-7H-pyrazolo[4,3-e][1,2,4]triazolo[1,5-c]pyrimidin-7-yl)-N-((5-fluoropyridin-2-yl)methyl)-2-phenylpropanamide]
23 | 7.2 nM | CC(C(=O)NCc1cc(F)ccn1)(c1ccccc1)n1ncc2c1nc(N)n1nc(-c3ccco3)nc21 (stereo not shown) [Example 118, 2-(5-amino-2-(furan-2-yl)-7H-pyrazolo[4,3-e][1,2,4]triazolo[1,5-c]pyrimidin-7-yl)-N-((4-fluoropyridin-2-yl)methyl)-2-phenylpropanamide]
24 | 6 nM | C[C@](C(=O)NCc1cc(F)ccn1)(c1ccccc1)n1ncc2c1nc(N)n1nc(-c3ccco3)nc21 [Example 118B, (R)-2-(5-amino-2-(furan-2-yl)-7H-pyrazolo[4,3-e][1,2,4]triazolo[1,5-c]pyrimidin-7-yl)-N-((4-fluoropyridin-2-yl)methyl)-2-phenylpropanamide]
25 | 3.2 nM | CC(C(=O)NCc1ncccc1F)(c1ccccc1)n1ncc2c1nc(N)n1nc(-c3ccco3)nc21 (stereo not shown) [Example 119, 2-(5-amino-2-(furan-2-yl)-7H-pyrazolo[4,3-e][1,2,4]triazolo[1,5-c]pyrimidin-7-yl)-N-((3-fluoropyridin-2-yl)methyl)-2-phenylpropanamide]
26 | 2 nM | C[C@](C(=O)NCc1ncccc1F)(c1ccccc1)n1ncc2c1nc(N)n1nc(-c3ccco3)nc21 [Example 119B, (R)-2-(5-amino-2-(furan-2-yl)-7H-pyrazolo[4,3-e][1,2,4]triazolo[1,5-c]pyrimidin-7-yl)-N-((3-fluoropyridin-2-yl)methyl)-2-phenylpropanamide]
27 | 8.5 nM | CC(C(=O)N[C@H]1CCC[C@@H](O)C1)(c1ccccc1)n1ncc2c1nc(N)n1nc(-c3ccco3)nc21 (stereo partly drawn) [Example 123, 2-(5-amino-2-(furan-2-yl)-7H-pyrazolo[4,3-e][1,2,4]triazolo[1,5-c]pyrimidin-7-yl)-N-((1S,3R)-3-hydroxycyclohexyl)-2-phenylpropanamide]
28 | 12.8 nM | CC(C(=O)NC1CCC(=O)CC1)(c1ccccc1)n1ncc2c1nc(N)n1nc(-c3ccco3)nc21 (stereo not shown) [Example 128, 2-(5-amino-2-(furan-2-yl)-7H-pyrazolo[4,3-e][1,2,4]triazolo[1,5-c]pyrimidin-7-yl)-N-(4-oxocyclohexyl)-2-phenylpropanamide]
